Laboratory results as given in US20220388964A1 (HiberCell, Inc., priority 2019, published 2022).

Biological target: GCN2 (Homo sapiens, UniProt Q9P2K8)
Test: TR-FRET biochemical assay for inhibition of GCN2 (Example 106, for Example 1-4BB)
Conditions: Table 8

GCN2, sequence (Q9P2K8 whole entry): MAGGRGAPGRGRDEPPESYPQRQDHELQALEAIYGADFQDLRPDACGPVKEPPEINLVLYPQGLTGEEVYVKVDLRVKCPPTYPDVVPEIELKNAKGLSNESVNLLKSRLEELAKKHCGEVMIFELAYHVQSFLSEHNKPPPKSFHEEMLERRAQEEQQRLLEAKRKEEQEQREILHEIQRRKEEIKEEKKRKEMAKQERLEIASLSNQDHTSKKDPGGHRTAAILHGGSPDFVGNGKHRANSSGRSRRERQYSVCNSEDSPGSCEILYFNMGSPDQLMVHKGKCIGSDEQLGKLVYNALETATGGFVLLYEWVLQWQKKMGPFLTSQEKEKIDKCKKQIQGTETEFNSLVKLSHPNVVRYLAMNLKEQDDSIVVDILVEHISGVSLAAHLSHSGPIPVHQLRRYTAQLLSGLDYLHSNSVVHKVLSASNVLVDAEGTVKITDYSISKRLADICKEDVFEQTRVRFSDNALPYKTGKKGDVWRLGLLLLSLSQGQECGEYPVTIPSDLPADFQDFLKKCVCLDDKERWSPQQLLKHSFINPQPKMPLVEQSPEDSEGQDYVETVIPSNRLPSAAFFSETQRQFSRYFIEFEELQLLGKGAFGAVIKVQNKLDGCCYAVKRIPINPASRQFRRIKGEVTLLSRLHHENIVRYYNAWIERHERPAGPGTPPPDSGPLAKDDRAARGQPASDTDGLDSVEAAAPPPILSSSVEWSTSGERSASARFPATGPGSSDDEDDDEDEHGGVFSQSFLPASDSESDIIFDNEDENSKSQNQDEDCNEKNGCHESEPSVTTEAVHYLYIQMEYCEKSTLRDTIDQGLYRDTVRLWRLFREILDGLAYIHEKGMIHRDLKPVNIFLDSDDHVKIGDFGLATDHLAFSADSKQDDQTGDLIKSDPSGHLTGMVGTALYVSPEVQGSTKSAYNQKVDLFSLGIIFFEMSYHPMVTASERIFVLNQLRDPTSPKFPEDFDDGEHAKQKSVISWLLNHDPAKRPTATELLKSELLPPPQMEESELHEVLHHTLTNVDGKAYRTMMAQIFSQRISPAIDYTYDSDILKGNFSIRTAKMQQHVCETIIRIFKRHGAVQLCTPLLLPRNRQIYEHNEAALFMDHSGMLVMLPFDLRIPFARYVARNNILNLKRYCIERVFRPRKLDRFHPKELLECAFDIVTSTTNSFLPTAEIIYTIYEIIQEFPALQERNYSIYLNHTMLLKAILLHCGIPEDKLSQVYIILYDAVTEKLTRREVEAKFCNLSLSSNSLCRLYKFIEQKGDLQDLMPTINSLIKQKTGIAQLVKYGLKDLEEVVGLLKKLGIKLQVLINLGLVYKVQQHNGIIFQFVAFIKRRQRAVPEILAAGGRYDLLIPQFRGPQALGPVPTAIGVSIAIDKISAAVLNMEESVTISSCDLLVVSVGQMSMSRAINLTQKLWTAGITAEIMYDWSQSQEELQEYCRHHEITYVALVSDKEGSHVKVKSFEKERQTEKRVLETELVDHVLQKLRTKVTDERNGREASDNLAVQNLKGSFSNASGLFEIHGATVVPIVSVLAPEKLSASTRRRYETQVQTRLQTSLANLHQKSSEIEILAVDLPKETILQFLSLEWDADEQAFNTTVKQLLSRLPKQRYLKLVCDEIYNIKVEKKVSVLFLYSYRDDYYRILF

Compound	IC50 [nM]
Cc1ccc(S(=O)(=O)Nc2ccc(F)c(-c3ccc4c(-c5ncc[nH]5)n[nH]c4c3F)c2F)cc1 [Example 1, N-(2,4-difluoro-3-(7-fluoro-3-(1H-imidazol-2-yl)-1H-indazol-6-yl)phenyl)-4-methylbenzenesulfonamide]	500 to 2500
Cc1ncccc1S(=O)(=O)Nc1ccc(F)c(-c2ccc3c(-c4ncc[nH]4)n[nH]c3c2F)c1F [Example 2, N-(2,4-difluoro-3-(7-fluoro-3-(1H-imidazol-2-yl)-1H-indazol-6-yl)phenyl)-2-methylpyridine-3-sulfonamide]	< 500
Cc1ccc(S(=O)(=O)Nc2ccc(F)c(-c3ccc4c(-c5ncc[nH]5)n[nH]c4c3F)c2F)c(C)n1 [Example 2AA, N-(2,4-difluoro-3-(7-fluoro-3-(1H-imidazol-2-yl)-1H-indazol-6-yl)phenyl)-2,6-dimethyl-pyridine-3-sulfonamide]	< 500
Cc1ncc(F)cc1S(=O)(=O)Nc1ccc(F)c(-c2ccc3c(-c4ncc[nH]4)n[nH]c3c2F)c1F [Example 2AB, N-(2,4-difluoro-3-(7-fluoro-3-(1H-imidazol-2-yl)-1H-indazol-6-yl)phenyl)-5-fluoro-2-methylpyridine-3-sulfonamide]	< 500
O=c1[nH]cccc1S(=O)(=O)Nc1ccc(F)c(-c2ccc3c(-c4ncc[nH]4)n[nH]c3c2F)c1F [Example 2AC, N-(2,4-difluoro-3-(7-fluoro-3-(1H-imidazol-2-yl)-1H-indazol-6-yl)phenyl)-2-oxo-1,2-dihydro-pyridine-3-sulfonamide]	2500 to 10000
COc1ncc(Cl)cc1S(=O)(=O)Nc1cccc(-c2ccc3c(-c4ncc[nH]4)n[nH]c3c2F)c1C#N [Example 2AD, 5-chloro-N-(2-cyano-3-(7-fluoro-3-(1H-imidazol-2-yl)-1H-indazol-6-yl)phenyl)-2-methoxypyridine-3-sulfonamide]	< 500
Cc1oncc1S(=O)(=O)Nc1ccc(F)c(-c2ccc3c(-c4ncc[nH]4)n[nH]c3c2F)c1F [Example 2AE, N-(2,4-difluoro-3-(7-fluoro-3-(1H-imidazol-2-yl)-1H-indazol-6-yl)phenyl)-5-methylisoxazole-4-sulfonamide]	> 10000
O=S(=O)(Nc1ccc(F)c(-c2ccc3c(-c4ncc[nH]4)n[nH]c3c2F)c1F)c1cc(Cl)cc(CO)c1Cl [Example 2AF, 2,5-dichloro-N-(2,4-difluoro-3-(7-fluoro-3-(1H-imidazol-2-yl)-1H-indazol-6-yl)-phenyl)-3-(hydroxyl-methyl)benzenesulfonamide]	< 500
O=S(=O)(Nc1ccc(F)c(-c2ccc3c(-c4ncc[nH]4)n[nH]c3c2F)c1F)c1cccc(F)c1F [Example 2AG, N-(2,4-difluoro-3-(7-fluoro-3-(1H-imidazol-2-yl)-1H-indazol-6-yl)phenyl)-2,3-difluorobenzenesulfonamide]	< 500
Cc1cnc(C)c(S(=O)(=O)Nc2ccc(F)c(-c3ccc4c(-c5ncc[nH]5)n[nH]c4c3F)c2F)c1 [Example 2AH, N-(2,4-difluoro-3-(7-fluoro-3-(1H-imidazol-2-yl)-1H-indazol-6-yl)phenyl)-2,5-dimethyl-pyridine-3-sulfonamide]	< 500
Cc1cccc(S(=O)(=O)Nc2ccc(F)c(-c3ccc4c(-c5ncc[nH]5)n[nH]c4c3F)c2F)c1C [Example 2AI, N-(2,4-difluoro-3-(7-fluoro-3-(1H-imidazol-2-yl)-1H-indazol-6-yl)phenyl)-2,3-dimethylbenzenesulfonamide]	< 500
Cn1cccc(S(=O)(=O)Nc2ccc(F)c(-c3ccc4c(-c5ncc[nH]5)n[nH]c4c3F)c2F)c1=O [Example 2AJ, N-(2,4-difluoro-3-(7-fluoro-3-(1H-imidazol-2-yl)-1H-indazol-6-yl)phenyl)-1-methyl-2-oxo-1,2-dihydro-pyridine-3-sulfonamide]	2500 to 10000
COc1ncc(Cl)cc1S(=O)(=O)Nc1ncnc(-c2ccc3c(-c4ncc[nH]4)n[nH]c3c2F)c1F [Example 2AK, 5-chloro-N-(5-fluoro-6-(7-fluoro-3-(1H-imidazol-2-yl)-1H-indazol-6-yl)pyrimidin-4-yl)-2-methoxypyridine-3-sulfonamide]	< 500
O=c1cccc(S(=O)(=O)Nc2ccc(F)c(-c3ccc4c(-c5ncc[nH]5)n[nH]c4c3F)c2F)[nH]1 [Example 2AL, N-(2,4-difluoro-3-(7-fluoro-3-(1H-imidazol-2-yl)-1H-indazol-6-yl)phenyl)-6-oxo-1,6-dihydropyridine-2-sulfonamide]	2500 to 10000
COc1cccc(S(=O)(=O)Nc2ccc(F)c(-c3ccc4c(-c5ncc[nH]5)n[nH]c4c3F)c2F)n1 [Example 2AM, N-(2,4-difluoro-3-(7-fluoro-3-(1H-imidazol-2-yl)-1H-indazol-6-yl)phenyl)-6-methoxypyridine-2-sulfonamide]	500 to 2500
Cn1cc(Cl)cc(S(=O)(=O)Nc2ccc(F)c(-c3ccc4c(-c5ncc[nH]5)n[nH]c4c3F)c2F)c1=O [Example 2AN, 5-chloro-N-(2,4-difluoro-3-(7-fluoro-3-(1H-imidazol-2-yl)-1H-indazol-6-yl)phenyl)-1-methyl-2-oxo-1,2-dihydro-pyridine-3-sulfonamide]	< 500

Compound	IC50 [nM]
COc1ncc(Cl)cc1S(=O)(=O)Nc1cc(C)nc(-c2ccc3c(-c4ncc[nH]4)n[nH]c3c2F)c1F [Example 2AO, 5-chloro-N-(3-fluoro-2-(7-fluoro-3-(1H-imidazol-2-yl)-1H-indazol-6-yl)-6-methyl-pyridin-4-yl)-2-methoxy-pyridine-3-sulfonamide]	2500 to 10000
COc1cccc(S(=O)(=O)Nc2ccc(F)c(-c3ccc4c(-c5ncc[nH]5)n[nH]c4c3F)c2F)c1F [Example 2AP, N-(2,4-difluoro-3-(7-fluoro-3-(1H-imidazol-2-yl)-1H-indazol-6-yl)phenyl)-2-fluoro-3-methoxybenzene-sulfonamide]	< 500
O=S(=O)(Nc1ccc(F)c(-c2ccc3c(-c4ncc[nH]4)n[nH]c3c2F)c1F)c1cccc(O)c1F [Example 2AQ, N-(2,4-difluoro-3-(7-fluoro-3-(1H-imidazol-2-yl)-1H-indazol-6-yl)phenyl)-2-fluoro-3-hydroxybenzene-sulfonamide]	< 500
COc1cccc(S(=O)(=O)Nc2ccc(F)c(-c3ccc4c(-c5ncc[nH]5)n[nH]c4c3F)c2F)c1C [Example 2AR, N-(2,4-difluoro-3-(7-fluoro-3-(1H-imidazol-2-yl)-1H-indazol-6-yl)phenyl)-3-methoxy-2-methylbenzene-sulfonamide]	500 to 2500
COc1ncc(Cl)cc1S(=O)(=O)Nc1ccc(F)c(-c2ccc3c(C(=O)N(C)C)n[nH]c3c2F)c1F [Example 2AS, 6-(3-((5-chloro-2-methoxy-pyridine)-3-sulfonamido)-2,6-difluorophenyl)-7-fluoro-N,N-dimethyl-1H-indazole-3-carboxamide]	500 to 2500
Cc1cccc(F)c1S(=O)(=O)Nc1ccc(F)c(-c2ccc3c(-c4ncc[nH]4)n[nH]c3c2F)c1F [Example 2AT, N-(2,4-difluoro-3-(7-fluoro-3-(1H-imidazol-2-yl)-1H-indazol-6-yl)phenyl)-2-fluoro-6-methylbenzene-sulfonamide]	< 500
Cc1c(O)cccc1S(=O)(=O)Nc1ccc(F)c(-c2ccc3c(-c4ncc[nH]4)n[nH]c3c2F)c1F [Example 2AU, N-(2,4-difluoro-3-(7-fluoro-3-(1H-imidazol-2-yl)-1H-indazol-6-yl)phenyl)-3-hydroxy-2-methylbenzene-sulfonamide]	500 to 2500
O=S(=O)(Nc1ccc(F)c(-c2ccc3c(-c4ncc[nH]4)n[nH]c3c2)c1F)c1cc(Cl)ccc1Cl [Example 2AV, N-(3-(3-(1H-imidazol-2-yl)-1H-indazol-6-yl)-2,4-difluorophenyl)-2,5-dichlorobenzenesulfonamide]	< 500
Cc1ccc(Cl)cc1S(=O)(=O)Nc1ccc(F)c(-c2ccc3c(-c4ncc[nH]4)n[nH]c3c2)c1F [Example 2AW, N-(3-(3-(1H-imidazol-2-yl)-1H-indazol-6-yl)-2,4-difluorophenyl)-5-chloro-2-methylbenzenesulfonamide]	< 500
O=S(=O)(Nc1ccc(F)c(-c2ccc3c(-c4ncc[nH]4)n[nH]c3c2F)c1F)c1cc(Cl)ccc1Cl [Example 2AX, 2,5-dichloro-N-(2,4-difluoro-3-(7-fluoro-3-(1H-imidazol-2-yl)-1H-indazol-6-yl)phenyl)-benzenesulfonamide]	< 500
Cc1c(Cl)cccc1S(=O)(=O)Nc1ccc(F)c(-c2ccc3c(-c4ncc[nH]4)n[nH]c3c2F)c1F [Example 2AY, 3-chloro-N-(2,4-difluoro-3-(7-fluoro-3-(1H-imidazol-2-yl)-1H-indazol-6-yl)phenyl)-2-methylbenzenesulfonamide]	< 500
Cc1noc(C)c1S(=O)(=O)Nc1ccc(F)c(-c2ccc3c(-c4ncc[nH]4)n[nH]c3c2F)c1F [Example 2AZ, N-(2,4-difluoro-3-(7-fluoro-3-(1H-imidazol-2-yl)-1H-indazol-6-yl)phenyl)-3,5-dimethylisoxazole-4-sulfonamide]	< 500
COc1ccc(S(=O)(=O)Nc2ccc(F)c(-c3ccc4c(-c5ncc[nH]5)n[nH]c4c3F)c2F)cc1 [Example 2B, N-(2,4-difluoro-3-(7-fluoro-3-(1H-imidazol-2-yl)-1H-indazol-6-yl)phenyl)-4-methoxybenzene-sulfonamide]	500 to 2500
COc1ccc(Cl)c(S(=O)(=O)Nc2ccc(F)c(-c3ccc4c(-c5ncc[nH]5)n[nH]c4c3F)c2F)c1 [Example 2BA, 2-chloro-N-(2,4-difluoro-3-(7-fluoro-3-(1H-imidazol-2-yl)-1H-indazol-6-yl)phenyl)-5-methoxybenzene-sulfonamide]	< 500
O=S(=O)(Nc1ccc(F)c(-c2ccc3c(-c4ncc[nH]4)n[nH]c3c2F)c1F)c1cccc(Cl)c1F [Example 2BB, 3-chloro-N-(2,4-difluoro-3-(7-fluoro-3-(1H-imidazol-2-yl)-1H-indazol-6-yl)phenyl)-2-fluorobenzenesulfonamide]	< 500
COC(=O)c1ccc(Cl)cc1S(=O)(=O)Nc1ccc(F)c(-c2ccc3c(-c4ncc[nH]4)n[nH]c3c2F)c1F [Example 2BC, methyl 4-chloro-2-(N-(2,4-difluoro-3-(7-fluoro-3-(1H-imidazol-2-yl)-1H-indazol-6-yl)phenyl)sulfamoyl)benzoate]	< 500
